From a melting point compilation (Tetko et al.; mined from patent text by program, amines drawn as free bases though some values may be those of a salt)

Point of comparison: `CC(C)(C)C(=O)C(CSc1ccc(Cl)cc1)n1cncn1` (stereo unspecified), melting point 67 °C. Against it:
- Nc1sc2c(c1C(=O)c1ccc(F)cc1)CCN(C(=O)OCc1ccccc1)C2 — higher, 90 to 92 °C
- CN(C)Nc1cc(F)ccc1[N+](=O)[O-] — not separable, 67 to 71 °C
- CCNC(=O)c1c(I)cccc1[Si](C)(C)C — higher, 135 to 137 °C
- COC(=O)c1ccc(Cn2c(=O)c(C)c3sc(C(=O)NCc4ccc(F)cc4)cn3c2=O)cc1 — higher, > 215 °C
- CC(=O)Nc1c(I)c(C(=O)OCOC(=O)C(C)(C)C)c(I)c(N(C)C(C)=O)c1I — higher, 232 to 234 °C
- COc1ccc(CCNC(=O)CCCCC(=O)NCCc2cccc3ccccc23)cc1OC — higher, 156 to 157 °C
- CN(C=C(C#N)C(=O)Nc1ccccc1Cl)Cc1ccccc1Cl — higher, 138 to 139 °C
- CC(CSC#N)C(=O)O (stereo unspecified) — lower, 24 to 25 °C
- CC(C)[C@H](NC(=O)OCc1ccccc1)C(=O)c1ccc(OCc2ccccc2)cc1 — higher, 75 to 77 °C
- O=[N+]([O-])c1cccc(-n2cccn2)c1 — higher, 85 to 87 °C
- Fc1ccc(Nc2ncnc3ccc(-c4ccsc4)cc23)cc1Cl — higher, 195 to 197 °C
- CN1CCN(CCCCCCCCCOc2ccc3oc(-c4ccccc4)cc(=O)c3c2)CC1 — higher, 77 to 80 °C
- CC(C)(C)C(NC(=O)c1ccc(Cl)cc1)NC(=NC#N)NCc1cccc(Cl)c1 (stereo unspecified) — higher, 178 to 180 °C
- Cn1cnc(-c2ccccc2)c1-c1ccncc1 — higher, 161 to 162 °C
- O=C(Nc1ccc(Cl)cc1)c1cccc(Cl)c1 — higher, 124 to 126 °C
- COc1ccc(CN2C(=O)C(CO)(c3ccccc3Cl)c3cc(Cl)ccc32)c(OC)c1 (stereo unspecified) — higher, 165 °C
- O=C1CCN(C(=S)Nc2ccc(Cl)cc2)N1c1ccccc1 — higher, 136 to 139 °C
- COC(=O)c1cccnc1Oc1ccc(F)cc1 — higher, 97 to 99 °C
- CC(C)(C)c1ccc(-c2ccc3c(C(N)=O)nn(-c4ccc(S(N)(=O)=O)cc4)c3c2)cc1 — higher, 262 to 263 °C
- Oc1ccc(-c2cn(-c3ccncc3)c(-c3ccc(F)cc3)n2)cc1 — higher, 230 to 231 °C
- Cc1nn(CCOc2ccc(C=O)cc2)c(=O)c2ccccc12 — higher, 90 °C
- Cc1cnc(Br)c(F)c1 — lower, 32 to 33 °C
- CCOC(=O)c1cc(-c2csc(-c3ccnc(N)c3)n2)c(=O)[nH]c1C — higher, > 260 °C
- O=C(O)C1Cc2c(ncn2Cc2ccccc2)CN1C(=O)C(c1ccccc1)c1ccccc1 (stereo unspecified) — higher, 167 to 169 °C
- Cc1nc2cnc3cccnc3c2n1CC(C)C — higher, 110 to 111 °C
- CC(C)(C)OC(=O)N1CCC(OCc2ccccc2)C1CC(O)Cn1cnc2cccc(F)c2c1=O (stereo unspecified) — higher, 219 °C
- Cc1cccc(COc2cccc3c2CN(C2CCC(=O)NC2=O)C3=O)c1 (stereo unspecified) — higher, 244 to 246 °C
- CC(C)n1nc(-c2nc(C#N)c(C#N)nc2-c2ccccc2Br)ccc1=O — higher, 160 to 161 °C
- CCCCC1CCc2ccc(OCc3ccccn3)cc2C1=O (stereo unspecified) — lower, 56 to 60 °C
- C[Si](C)(C)c1cccc2c1Sc1c(cccc1[Si](C)(C)C)S2 — higher, 90 to 91 °C
- NS(=O)(=O)c1ccc(-c2nc(C(F)(F)F)oc2-c2ccc(Cl)cc2)cc1 — higher, 167 to 168 °C
- Fc1ccc(Nc2ncnc3cnc(NCc4ccccn4)nc23)cc1Cl — higher, 220 to 222 °C
- O=C(O)c1ccc(NCCOc2ccccc2)cc1 — higher, 172 to 175 °C
- COc1ccc2c(Cc3c(Cl)cncc3Cl)nncc2c1C#Cc1ccccc1 — higher, 217 to 219 °C
- O=C(CCCCCl)c1c[nH]c2ccccc12 — higher, 165 to 167 °C
- O=C1CCCCC1C(C[N+](=O)[O-])c1ccccc1Cl (racemic) — higher, 107 to 108 °C
- OC(CN1CCC(C(O)c2ccccc2)CC1)c1ccccc1 (stereo unspecified) — higher, 104 °C
- CCc1ccc(-c2nc(COc3ccc(CCCn4ccnc4)cc3)co2)s1 — lower, 57 to 58 °C
- CC(C)CC(Br)C(=O)N1CCC[C@H]1CO (stereo partly specified) — higher, 79 to 82 °C
- CCCNC(=O)C1Cc2[nH]c3ccc(OC)cc3c2C1 (stereo unspecified) — higher, 141 to 143 °C
- Nc1cc(SC2=CCCCC2)ccc1[N+](=O)[O-] — higher, 100 to 102 °C
- CC(C)(C)OC(=O)NCC/C=C/c1cncnc1 — lower, 54 to 55.5 °C
- CNC(=O)CCn1ncccc1=O — higher, 94 to 96 °C
- Nc1ncc(Br)nc1-c1ccccc1Cl — higher, 138 to 140 °C
- CCCN(CCC)CC1CCCN(CCNC(=O)N2c3ccccc3C(=O)Nc3cccnc32)C1 (stereo unspecified) — higher, 153 to 155 °C
- CCC(C)(C)c1ccc(OCCCC(=O)Nc2ccc(Cl)c(NC(=O)C(C(=O)c3ccc(OC)cc3)N3C(=O)NC(=C(C)C)C3=O)c2)c(C(C)(C)CC)c1 (stereo unspecified) — higher, 140 to 141 °C
- CSc1ccc2c(O)c(CS(C)(=O)=O)cnc2c1 — higher, 290 to 292 °C
- COc1ccc(-c2nc3ccc(OC)cc3s2)cc1 — higher, 162 to 164 °C
- Cc1ccc(S(=O)(=O)OCCC2CCN(C(=O)c3ccccc3)CC2)cc1 — higher, 81 to 83 °C
- COCNC(=O)C1CN(C(c2ccccc2)c2ccccc2)C1 — higher, 103 to 106 °C
- Cc1c(-c2ccc(F)cc2F)ncnc1C(F)F — lower, 54 to 55 °C
- CN(SC1CCCCCCC1Cl)C(=O)Nc1ccc(Cl)c(Cl)c1 (stereo unspecified) — higher, 90 to 91 °C
- O=C(O)CCCn1nnnc1S — higher, 90 to 95 °C
- CSc1ccc(Cl)c(C(=O)Nc2ccc(-n3nc(C(F)(F)F)cc3C3CC3)cc2)c1 — higher, 172 to 177 °C
- O=C(NCCc1ccccc1)C1=C(C(=O)Nc2cc(OC3CCCC3)c(Cl)cc2F)CCCC1 — higher, 165 to 166 °C
- CC(C)C(=O)NC[C@H]1CN(c2ccc3c(c2)CCCc2cnoc2-3)C(=O)O1 — higher, 187 to 193 °C
- COc1ccc(C(=O)Nc2ccc(C(=O)Nc3ccccc3)cc2)cc1C12CC3CC(CC(C3)C1)C2 — higher, 265 to 268 °C
- O=c1[nH]cnc2cc(O)c(O)cc12 — higher, > 250 °C
- CCc1cccc(C)c1CNc1nc(CO)cn2c(C)c(C)nc12 — higher, 166 °C
- CC(=O)N(N=Cc1c(Cl)cccc1Cl)c1nncn1N(C(C)=O)C(C)=O — higher, 140 to 150 °C
- CSc1ccc2c(C3=C(c4cn(C)c5cc([N+](=O)[O-])ccc45)C(=O)NC3=O)cn(C)c2c1 — higher, 273 to 275 °C
- Cc1nn(-c2cc(OS(C)(=O)=O)c(Cl)cc2F)c(C)c1[N+](=O)[O-] — higher, 150 to 152 °C
- CC(C)(C)c1ccc(C(=O)Nc2cn3cc(Br)ccc3n2)cc1 — higher, 249 to 250 °C
- O=C(O)c1ccc(CN(C2CCCCC2)S(=O)(=O)c2ccc(F)cc2)cc1 — higher, 218 to 220 °C
- Cn1c(COc2ccc(CC3SC(=O)NC3=O)cc2)nc2ccc(Oc3ccc(NC(=S)Nc4cccc5ccccc45)cc3)cc21 (stereo unspecified) — higher, 186 to 188 °C
- CCOC(=O)C1=C(C)N(C2CC2)C(C)=C(C(=O)OC)C1c1ccc(C(F)(F)F)cc1 (stereo unspecified) — higher, 110 °C
- CCOC(=O)CSC1(SCC(=O)OCC)CCC2C3CCC4=CC(=O)C=CC4(C)C3(F)C(O)CC21C (stereo unspecified) — higher, 125 to 127 °C
- NC1([C@@H]2CCN(c3cc4c(cc3F)c(=O)c(C(=O)O)cn4[C@@H]3C[C@@H]3F)C2)CC1 — higher, 240 to 242 °C
- CCc1c(C(=O)C(N)=O)c2c(OCC(=O)O)cccc2n1Cc1ccccc1 — higher, 230 to 234 °C
- CCCCCCCCCCCCCCC(=O)C(=O)NC(C=CC(=O)OC)CCCC (stereo unspecified) — lower, 48 to 50 °C
- COc1cc2c(cc1OC)[C@@H]1CN(C)CC[C@@H]1N=C2c1cccc(C(F)(F)F)c1 (relative stereo) — higher, 215 to 217 °C
- Cc1cc(Cl)nc(Br)c1 — higher, 76 °C
- O=C(Nc1ccccc1)c1ccc(O)c(Nc2ccccc2)c1 — higher, 158 to 159 °C
- OCCNCCc1c[nH]c2ccccc12 — higher, 92 °C
- O=C1c2ccc(-c3cccc(C(F)(F)F)c3)cc2CC1Br (stereo unspecified) — higher, 96 °C
- CCCC(=O)Nc1ccn(C2OC(CO)C(O)C2O)c(=O)n1 (stereo unspecified) — higher, 108 to 110 °C
- CC(C)CN1CCn2c1nc1[nH]cnc1c2=O — higher, 233 to 237 °C
- CNC(=O)c1ccc(C)c(-n2c(C)cc(OCc3ccc(F)cc3CNC(=O)Nc3cc(C(C)(C)C)nn3-c3ccc(O)c(Cl)c3)c(Cl)c2=O)c1 — higher, 177 to 180 °C
- CN(C)CCNc1ncc(C(=O)N(C)Cc2cc(C(F)(F)F)cc(C(F)(F)F)c2)c(-c2ccccc2)n1 — higher, 110 °C
- CC(N(CCCl)C(N)=O)P(=O)(O)O (stereo unspecified) — higher, 180 °C
- O=C(O)COc1ccc(SCc2cc(-c3ccccc3Cl)on2)c2c1CCC2 — higher, 161 to 162 °C
- CCN(CC)Cc1nc2cc(OC)c(OC)cc2c(-c2ccc(OC)c(OC)c2)c1C(=O)c1ccccc1 — higher, 150 to 151 °C
- CC(C)n1cc(-c2c(-c3ccc(F)cc3)nn3ccncc23)ccc1=O — higher, 214 to 215 °C
- CCOC(=O)C(C#N)=Cc1c(OC)nc2c(C)cccn12 — higher, 127 to 129 °C
- FC(F)(F)c1nnc2c(Cl)nc3ccc(Cl)cc3n12 — higher, 133 to 135 °C
- CCN(CC)CCNC(=O)c1cccc2c(=O)c3cc(I)ccc3[nH]c12 — higher, 140 to 142 °C
- O=C1CNc2ncc(I)cc2N1Cc1ccc(C(F)(F)F)o1 — higher, 189 to 191 °C
- CC#CCOc1ccc(OCC(=O)NO)cc1 — higher, 100 to 105 °C
- CC(=O)C=CC=Cc1ccc(OCc2ccccc2)cc1 — higher, 132 to 133 °C
- CC(C)(C)OC(=O)NCc1ccc2cc(O)ccc2c1 — higher, 173 to 174 °C
- CC1(CN(c2ccc(Cl)cc2)S(C)(=O)=O)OCCO1 — higher, 84 to 85 °C
- N#Cc1c(N)nc2ccccc2c1NCc1ccco1 — higher, 206 °C
- Cn1nccc1OCc1c(S(C)(=O)=O)ccc(C(=O)O)c1Cl — higher, 197 °C
- CCNC(=O)c1ccccc1N(C)C(C)(C)C — lower, 45 to 48 °C
- COc1cc2cc(CC(C)(C(N)=O)c3ccc(C#N)cc3)sc2cc1OC (stereo unspecified) — higher, 178 to 180 °C
- COc1ccc2c(c1)c(CC(N)=O)c(C)n2Cc1ccc(OCc2ccccc2)cc1 — higher, 155 to 157 °C
- COCCOc1ncc(Br)nc1-c1ccc(Cl)cc1 — higher, 79 to 80 °C
- CCCCn1c(=O)[nH]c2cc(Cl)cc(Cl)c2c1=O — higher, 198 to 201 °C
- CCCCn1nc2c(N)nc3ccccc3c2c1CC(C)(C)C — higher, 163 to 164 °C
- COC(=O)c1cccc(-c2nc(-c3cccc(OC(F)(F)F)c3)cs2)c1 — higher, 84 to 85 °C
